Source: patent US20260184708A1, “PYRIDAZINONES AND METHODS OF USE THEREOF” (GFB (ABC), LLC, priority 2017, published 2026)
Read-outs that look alike come from different tables or passages of the source.

Key:
TRPC5 = biological target: T1, TRPC5 (Homo sapiens, UniProt Q9UL62); experiment: TRPC5 fluorescence assay, membrane potential dye, flexstation (FLEX); format: cell-based; settings: Table 6; HEK293 cells overexpressing TRPC5
T1 construct: expressed in transfected cells; host or cells: HEK 293
T1 sequence (Q9UL62 1-973): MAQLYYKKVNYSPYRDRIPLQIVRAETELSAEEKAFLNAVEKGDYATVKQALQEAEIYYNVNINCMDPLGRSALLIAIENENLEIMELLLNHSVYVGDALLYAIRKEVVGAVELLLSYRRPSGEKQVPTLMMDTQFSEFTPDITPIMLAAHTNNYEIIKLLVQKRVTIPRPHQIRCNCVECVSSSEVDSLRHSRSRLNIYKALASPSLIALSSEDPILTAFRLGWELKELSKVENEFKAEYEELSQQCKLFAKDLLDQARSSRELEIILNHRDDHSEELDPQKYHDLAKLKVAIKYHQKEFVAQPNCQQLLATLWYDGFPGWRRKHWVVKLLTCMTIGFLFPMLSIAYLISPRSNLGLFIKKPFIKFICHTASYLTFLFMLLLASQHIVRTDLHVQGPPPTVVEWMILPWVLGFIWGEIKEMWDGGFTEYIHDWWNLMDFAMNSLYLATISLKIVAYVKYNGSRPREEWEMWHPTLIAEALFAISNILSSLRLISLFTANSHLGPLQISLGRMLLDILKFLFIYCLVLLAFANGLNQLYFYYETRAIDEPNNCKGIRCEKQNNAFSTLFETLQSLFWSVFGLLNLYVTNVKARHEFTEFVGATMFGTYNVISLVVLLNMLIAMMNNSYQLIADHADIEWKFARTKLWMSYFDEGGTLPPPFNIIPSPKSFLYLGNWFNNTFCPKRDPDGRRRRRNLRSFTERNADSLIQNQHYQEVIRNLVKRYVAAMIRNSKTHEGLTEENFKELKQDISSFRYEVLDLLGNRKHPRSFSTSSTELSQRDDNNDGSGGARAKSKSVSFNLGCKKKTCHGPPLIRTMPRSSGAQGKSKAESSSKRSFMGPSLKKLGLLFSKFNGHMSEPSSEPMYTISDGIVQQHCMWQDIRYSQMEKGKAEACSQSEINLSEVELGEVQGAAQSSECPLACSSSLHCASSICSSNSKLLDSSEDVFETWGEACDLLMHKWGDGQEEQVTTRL
Experimental: HEK 293 cells expressing human TRPC5 cells were trypsinised, counted and seeded in black, clear-bottomed 96-well plates at a density of 50,000 cells per well and incubated overnight. Next day, the cells were loaded with membrane potential dye. Dye solution was made up according to the manufacturer's instructions in HEPES buffered Hank's balanced salt solution (HBSS). Dye solution (10 μL) was added to the wells and incubated at 37° C. for 1 hour. The test compounds and standard inhibitors were added to the wells and incubated at room temperature for 10 minutes. The plates were then placed in the flexstation and fluorescence monitored every 1.52 seconds. After 20 seconds, 10 μL of the appropriate standard agonist was added and the fluorescence monitored for 2 minutes at ex/emm: 530 nm/565 nm.

TRPC4 = biological target: T2, TRPC4 (Homo sapiens, UniProt Q9UBN4); experiment: TRPC4 FLIPR Assay (HEK-TREx hTRPC4, Englerin A stimulation); format: cell-based; settings: HEK-TREx hTRPC4
T2 construct: expressed in transfected cells; host or cells: HEK-TREx (HekTrex-293), cell line ICLN-1694, tetracycline-induced
T2 sequence (Q9UBN4 1-982 isoform Q9UBN4-5): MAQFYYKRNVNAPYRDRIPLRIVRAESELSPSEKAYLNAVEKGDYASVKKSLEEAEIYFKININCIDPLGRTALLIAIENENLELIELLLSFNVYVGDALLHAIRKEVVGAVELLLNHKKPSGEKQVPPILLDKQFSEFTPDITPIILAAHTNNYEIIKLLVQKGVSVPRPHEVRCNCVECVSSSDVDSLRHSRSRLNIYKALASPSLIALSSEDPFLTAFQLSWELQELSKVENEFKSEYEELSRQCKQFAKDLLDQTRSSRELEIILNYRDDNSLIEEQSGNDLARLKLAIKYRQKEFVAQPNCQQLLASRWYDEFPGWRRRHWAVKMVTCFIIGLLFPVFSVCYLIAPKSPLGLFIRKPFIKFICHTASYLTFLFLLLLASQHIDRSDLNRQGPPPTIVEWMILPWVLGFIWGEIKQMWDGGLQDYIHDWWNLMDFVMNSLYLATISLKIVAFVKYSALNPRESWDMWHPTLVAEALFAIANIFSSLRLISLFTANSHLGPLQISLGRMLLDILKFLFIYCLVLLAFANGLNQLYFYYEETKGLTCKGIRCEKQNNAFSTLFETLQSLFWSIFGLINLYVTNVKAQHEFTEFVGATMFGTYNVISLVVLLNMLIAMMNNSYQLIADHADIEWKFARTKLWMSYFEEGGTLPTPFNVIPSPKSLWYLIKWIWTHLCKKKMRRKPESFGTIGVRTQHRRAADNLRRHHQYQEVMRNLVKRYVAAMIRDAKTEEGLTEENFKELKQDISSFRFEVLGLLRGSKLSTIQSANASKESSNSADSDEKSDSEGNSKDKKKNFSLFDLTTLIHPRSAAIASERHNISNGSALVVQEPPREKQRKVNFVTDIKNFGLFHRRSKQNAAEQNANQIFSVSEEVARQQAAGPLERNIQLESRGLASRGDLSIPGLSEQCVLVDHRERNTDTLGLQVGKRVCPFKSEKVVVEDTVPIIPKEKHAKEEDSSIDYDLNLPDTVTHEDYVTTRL
Experimental: FLIPR Assay Buffer (Earls Balanced Salt Solution (EBSS)) was prepared as follows:
10-point dose response curves were generated using the Echo-550 acoustic dispenser. Compound source plates were made by serially diluting compound stocks to create 10 mM, 1 mM, and 0.1 mM solutions in DMSO into Echo certified LDV plates. The Echo then serially spotted 100% DMSO stock solutions into source dose response plates to generate a 4-fold dilution scheme. 100% DMSO was added to the spotted dose response plates to bring the final volume to 5 μl. […] of the dose response stock plate was then spotted into pre-incubation and stimulation assay plates. […] of pre-incubation buffer and 100 μl of stimulation buffer was then added to the plates resulting in a final assay test concentration range of 30 μM to 0.0001 μM with a final DMSO concentration of 0.3%.
Experimental Methods: Cells expressing TRPC4 were plated onto 384 well, black pdl-coated microplates and maintained in TRPC4 growth media the day prior to use for experiments. TRPC4 expression was induced by the application of 1 μg/ml tetracycline at the time of plating. […] Cells were incubated at room temperature, protected from light, for 60-90 minutes. After the incubation period, the dye was removed and replaced with 10 μl of EBSS. Cell, pre-incubation and stimulation plates were loaded onto the FLIPR-II and the assay was initiated. The FLIPR measured a 10 second baseline and then added 10 μl of 2× compounds (or controls). Changes in fluorescence were monitored for an additional 5 minutes. After a 5 minute pre-incubation, 20 μl of 2× Englerin A (with 1× compound or controls) was added to the cell plate. The final Engerlin A stimulation concentration in the assay is 100 nM. After the Englerin A addition, changes in fluorescence were monitored for an additional 5 minutes.
Test Agent Effect: Test agent modulation of TRPC4 calcium response was determined as follows. After the Englerin A, fluorescence was monitored for a 5 minute period. The maximum relative fluorescence response (minus the control response of […] of the control inhibitor) was captured and exported from the FLIPR. Test agent effect was calculated as % inhibition using the following formula: % inhibition=((RFU TEST AGENT−Plate Average RFU REF INHIB)/(Plate Average RFU CONTROL−Plate Average RFU REF INHIB))×100

[1] = Table 8, read-out: TRPC4 FLIPR IC50

Row | IC50 (TRPC5) [nM] | IC50 (TRPC4; [1]) [nM] | SMILES | also measured
1 | 0.01 to 1000 | – | O=c1[nH]ncc(N2CCc3nn(Cc4ccc(F)cc4C(F)(F)F)cc3C2)c1Cl | –
2 | 0.01 to 1000 | – | Cc1cccc(C)c1Cn1cnc2c1CCN(c1cn[nH]c(=O)c1Cl)C2 | –
3 | 1000 to 5000 | – | O=c1[nH]ncc(N2CCc3nn(-c4ccccc4OC(F)(F)F)cc3C2)c1Cl | –
4 | 1000 to 5000 | – | O=c1[nH]ncc(N2CCc3c(cnn3-c3ccccc3C(F)(F)F)C2)c1Cl | –
5 | 10000 to 500000 | – | Cc1nc2c(n1Cc1ccccc1C(F)(F)F)CCN(c1c(Cl)cn[nH]c1=O)C2 | –
6 | 10000 to 500000 | – | O=c1[nH]ncc(N2CCc3ncn(Cc4cnccc4C(F)(F)F)c3C2)c1Cl | –
7 | 0.01 to 1000 | – | O=c1[nH]ncc(N2CCc3c(nnn3Cc3cccnc3CC(F)(F)F)C2)c1Cl | –
8 | 0.01 to 1000 | – | C[C@H](c1ccccc1C(F)(F)F)n1nnc2c1CCN(c1cn[nH]c(=O)c1Cl)C2 | –
9 | 0.01 to 1000 | – | O=c1[nH]ncc(N2CCc3c(nnn3Cc3ccc(F)cc3C(F)F)C2)c1Cl | –
10 | 0.01 to 1000 | – | O=c1[nH]ncc(N2CCc3c(nnn3Cc3ccccc3OC(F)F)C2)c1Cl | –
11 | 1000 to 5000 | – | O=c1[nH]ncc(N2CCc3c(cnn3Cc3cccnc3CC(F)(F)F)C2)c1Cl | –
12 | 1000 to 5000 | – | O=c1[nH]ncc(N2CCc3ncn(-c4ccccc4C(F)(F)F)c3C2)c1Cl [drawing 869] | –
13 | 0.01 to 1000 | – | O=c1[nH]ncc(N2CCc3c(cnn3Cc3ccc(F)cc3C(F)(F)F)C2)c1Cl [drawing 907] | –
14 | 0.01 to 1000 | – | C[C@@H](c1ccccc1C(F)(F)F)n1nnc2c1CCN(c1cn[nH]c(=O)c1Cl)C2 [drawing 908] | –
15 | – | 0.01 to 1000 | CS(=O)(=O)c1nc2c(n1Cc1ccccc1C(F)(F)F)CCN(c1cn[nH]c(=O)c1Cl)C2 [drawing 1002] | –
16 | – | 0.01 to 1000 | O=c1[nH]ncc(N2CCc3c(Cc4ccc(F)cc4C(F)(F)F)n[nH]c3C2)c1Cl [drawing 1005] | –
17 | – | 5000 to 10000 | Cc1cc(F)ccc1CN1CCN(c2cn[nH]c(=O)c2Cl)CC1 [drawing 1012] | –
18 | – | 0.01 to 1000 | O=C1CN(c2cn[nH]c(=O)c2Cl)CCN1Cc1ccc(F)cc1Cl [drawing 1013] | –
19 | – | 1000 to 5000 | O=C1CN(c2cn[nH]c(=O)c2Cl)CCN1Cc1ccc(F)cc1F [drawing 1014] | –
20 | – | 0.01 to 1000 | O=C1CN(c2cn[nH]c(=O)c2Cl)CCN1Cc1ccccc1OC(F)(F)F [drawing 1015] | –
21 | – | 1000 to 5000 | COc1cc(F)ccc1CN1CCN(c2cn[nH]c(=O)c2Cl)CC1=O [drawing 1021] | –

The next lines start with the compound.

Row | SMILES | IC50 (TRPC5) [nM] | IC50 (TRPC4; [1]) [nM] | also measured
22 | Cc1ncccc1Cn1cnc2c1CN(c1cn[nH]c(=O)c1Cl)CC2 | 1000 to 5000 | – | –
23 | CCc1cccnc1Cn1cnc2c1CN(c1cn[nH]c(=O)c1Cl)CC2 | 5000 to 10000 | – | –
24 | N#Cc1c(N2CCc3ncn(Cc4cncc(F)c4)c3C2)cn[nH]c1=O | 1000 to 5000 | – | –
25 | N#Cc1c(N2CCc3c(ncn3Cc3cncc(F)c3)C2)cn[nH]c1=O | 0.01 to 1000 | – | –
26 | N#Cc1c(N2CCc3ncn(Cc4ccccc4C(F)F)c3C2)cn[nH]c1=O | 0.01 to 1000 | – | –
27 | C[C@H](c1ccccc1C(F)(F)F)n1nnc2c1CCN(c1cn[nH]c(=O)c1C#N)C2 | 0.01 to 1000 | – | –
28 | CC[C@H](c1cccnc1)n1nnc2c1CCN(c1cn[nH]c(=O)c1Cl)C2 | 1000 to 5000 | – | –
29 | CCOc1cccc(Cn2cnc3c2CCN(c2cn[nH]c(=O)c2Cl)C3)n1 | 1000 to 5000 | – | –
30 | CC(c1ccccc1C(F)(F)F)n1nnc2c1CCN(c1cn[nH]c(=O)c1C#N)C2 (stereo not drawn) | 5000 to 10000 | – | –
31 | N#Cc1ccccc1-n1cnc2c1CN(c1cn[nH]c(=O)c1C#N)CC2 [drawing 898] | 1000 to 5000 | – | –
32 | CN(c1ncc2c(n1)CN(c1cn[nH]c(=O)c1Cl)C2)c1ccc(F)cc1Cl [drawing 1003] | – | 0.01 to 1000 | –
33 | CCN(c1ncc2c(n1)CN(c1cn[nH]c(=O)c1Cl)C2)c1ccccc1Cl [drawing 1004] | – | 0.01 to 1000 | –
34 | CCc1ncccc1N(C)c1ncc2c(n1)CN(c1cn[nH]c(=O)c1Cl)C2 [drawing 1006] | – | 0.01 to 1000 | –
35 | Cc1ccccc1CN1CCN(c2cn[nH]c(=O)c2Cl)CC1=O [drawing 1008] | – | 0.01 to 1000 | –
36 | O=C1CN(c2cn[nH]c(=O)c2Br)CCN1Cc1cccc2ccccc12 [drawing 1009] | – | 0.01 to 1000 | –
37 | O=c1[nH]ncc(N2CCN(Cc3ccccc3Cl)CC2)c1Cl [drawing 1010] | – | 1000 to 5000 | –
38 | C[C@@H]1CN(Cc2ccccc2C(F)(F)F)CCN1c1cn[nH]c(=O)c1Cl [drawing 1016] | – | 5000 to 10000 | –
39 | Cc1ncccc1CN1CCN(c2cn[nH]c(=O)c2Cl)CC1 [drawing 1017] | – | 1000 to 5000 | –
40 | Cc1cc(Cl)ccc1CN1CCN(c2cn[nH]c(=O)c2Cl)CC1=O [drawing 1018] | – | 1000 to 5000 | –
41 | Cc1ccccc1[C@H](C)N1CCN(c2cn[nH]c(=O)c2Cl)CC1=O [drawing 1020] | – | 10000 to 500000 | –
42 | CN1CCN(Cc2nn(Cc3ccccc3C(F)F)c3c2CN(c2cn[nH]c(=O)c2Cl)CC3)C(=O)C1 [drawing 1091] | – | – | IC50 (TRPC4; Table 10, read-out: TRPC4-FLIPR ICSO): 0.01 to 1000 nM
